Patent US20230210834A1, “RNA METHYLTRANSFERASE INHIBITOR, SCREENING METHOD THEREFOR, ANTI-CANCER AGENT EFFICACY ASSESSMENT MARKER, AND KIT FOR EFFECTIVELY PREDICTING FTSJ1 INHIBITOR” (National University Corporation Okayama University, priority 2019, published 2023)

How the values were obtained:
[1] = test system: triple-negative breast cancer cell line MDA-MB-231; assay: Anti-tumor effect evaluation test in MDA-MB-231 tumor model mice; assay type: in vivo, immunodeficient mice (BALB/c-nu/nu); settings: 100 mg/kg intraperitoneally every other day in corn oil; FIG. 1 and 2
Protocol: A cell suspension (1×10^6 cells/100 μL), in which triple-negative breast cancer cell line MDA-MB-231 was suspended in phosphate buffer (PBS, produced by FUJIFILM Wako Pure Chemical Corporation), was inoculated subcutaneously in the dorsal lumbar region of immunodeficient mice (BALB/c-nu/nu, female, 6 weeks old, purchased from Shimizu Laboratory Supplies Co., Ltd.) using a syringe with a 23 G injection needle (Terumo Corporation). After confirming that the cancer cells engrafted under the skin of the mice to form tumor tissues, and that the tumor volume reached 100 mm^3, the obtained tumor model mice were used for the following evaluation test. First, each compound for evaluation was dissolved in corn oil (produced by Sigma-Aldrich Co., LLC) and administered intraperitoneally. PVZF0024 was administered at 100 mg/kg and PVZF2001 was administered at 20 mg/kg to the tumor model mice every other day. At each administration, the tumor diameter was measured with a caliper. The tumor volume was calculated according to the following formula: V=(3.14×D×d^2)/6 (wherein V is the tumor volume, D is the tumor major axis, and d is the tumor minor axis) (Wu. et al., Clin. Cancer Res., 2013 Oct. 15; 19(20): 5699-5710).

[2] = test system: polyglutamine luciferase reporter; assay: Screening: polyglutamine luciferase reporter assay in NUGC3 cells (luminescence % of DMSO); assay type: cell-based, human; settings: NUGC3 cells, luminescence relative to DMSO, concentration not given
[3] = test system: YAP/TAZ; assay: Screening: YAP/TAZ activity reporter (8xGTIIC plasmid) assay in NUGC3 cells (luminescence % of DMSO); assay type: cell-based, human; settings: NUGC3 cells, luminescence relative to DMSO, concentration not given
[4] = polyglutamine luciferase reporter
[5] = YAP/TAZ activity reporter (8×GTIIC)

Compound	antitumor effect (tumor growth, tumor volume) [1]	Polyglutamine [2] [%]	8×GTIIC [3] [%]	Polyglutamine [2, 4] [%]	8×GTIIC [3, 5] [%]
Oc1ccccc1C1CC(c2ccc3c(c2)OCCO3)=NN1 (stereo not shown) [PVZF0024]	significantly inhibit tumor growth	15.8	23.4		
Cc1ccc(S(=O)(=O)CC2CCC(C3CC3)CC2)c(C)c1 (stereo not shown) [SA050]				60.42	92.26
Cc1ccc(C)c(S(=O)(=O)CC2CCC(C3CC3)CC2)c1 (stereo not shown) [SA052]				47.69	54.65
Cc1cc(C(C)(C)C)cc(C)c1S(=O)(=O)CC1CCC(C2CC2)CC1 (stereo not shown) [SA053]				35.39	55.02
Cc1cccc(S(=O)(=O)CC2CCC(C3CC3)CC2)c1 (stereo not shown) [SA054]				109.1	83.34
Cc1ccc(S(=O)(=O)CC2CCC(C3CC3)CC2)cc1C (stereo not shown) [SA055]				81.09	82.18
Cc1ccc(S(=O)(=O)CC2CCC(C3CC3)CC2)c(C)c1 (stereo not shown) [SA057]				79.6	73.76
CC(C)c1ccc(S(=O)(=O)CC2CCC(C3CC3)CC2)cc1 (stereo not shown) [SA058]				76.81	35.45
Cc1ccccc1S(=O)(=O)CC1CCC(S(C)(=O)=O)CC1 (stereo not shown) [SA059]				100.9	88.99
Cc1ccc(S(=O)(=O)CC2CCC(S(C)(=O)=O)CC2)cc1 (stereo not shown) [SA060]				92.41	90.52
CS(=O)(=O)C1CCC(CS(=O)(=O)c2ccc3c(c2)CCCCC3)CC1 (stereo not shown) [SA061]				66.4	96.27
Cc1ccc(S(=O)(=O)CC2CCC(S(C)(=O)=O)CC2)cc1 (stereo not shown) [SA062]				93.21	100.9
CCc1ccc(S(=O)(=O)CC2CCC(S(C)(=O)=O)CC2)cc1CC (stereo not shown) [SA063]				78.75	93.35
Cc1ccc(C)c(S(=O)(=O)CC2CCC(S(C)(=O)=O)CC2)c1 (stereo not shown) [SA064]				54.39	64.48
CS(=O)(=O)C1CCC(CS(=O)(=O)c2ccc3c(c2)CCCC3)CC1 (stereo not shown) [SA065]				47.58	39.43
CC(C)(C)c1cc(C(C)(C)C)cc(S(=O)(=O)CC2CCC(C3CC3)CC2)c1 (stereo not shown) [SA066]				66.16	64.4
Cc1ccc(S(=O)(=O)CC2CCC(C3CC3)CC2)cc1 (stereo not shown) [SA067]				75.3	75.49
CCC1CCC(C(C)S(=O)(=O)c2c(C)cc(C(C)(C)C)cc2C)CC1 (stereo not shown) [SA068]				81.58	110.2

Compound	antitumor effect (tumor growth, tumor volume) [1]	Polyglutamine [2] [%]	8×GTIIC [3] [%]	Polyglutamine [2, 4] [%]	8×GTIIC [3, 5] [%]
C=C(CCC)C1CCC(CS(=O)(=O)c2ccc(C)cc2C(C)(C)C)CC1 (stereo not shown) [SA069]				76.83	67.61
CC(C)(C)c1cc(C(C)(C)C)cc(S(=O)(=O)CC2CCC(S(C)(=O)=O)CC2)c1 (stereo not shown) [SA070]				59.04	109.7
O=S(=O)(CC1CCC(S(=O)(=O)C2CCCCC2)CC1)c1ccccc1 (stereo not shown) [SA071]				61.72	138.5
CC1CCC(S(=O)(=O)C2CCC(CS(=O)(=O)c3ccccc3)CC2)CC1 (stereo not shown) [SA072]				73.98	68.16
CC(=O)c1ccccc1S(=O)(=O)CC1CCC(S(C)(=O)=O)CC1 (stereo not shown) [SA074]				92.5	88.44
CCS(=O)(=O)C1CCC(CS(=O)(=O)c2ccc(C)cc2C)CC1 (stereo not shown) [SA075]				110.7	95.02
Cc1ccc(S(=O)(=O)CC2CCC(S(C)(=O)=O)CC2)c(C)c1 (stereo not shown) [SA076]				98.03	64.29
CCS(=O)(=O)C1CCC(CS(=O)(=O)c2cc(C(C)C)cc(C)c2C)CC1 (stereo not shown) [SA077]				65.09	66.59
Cc1cc(C(C)C)cc(S(=O)(=O)CC2CCC(S(C)(=O)=O)CC2)c1C (stereo not shown) [SA078]				87.12	95.87
Cc1c(C)c(C)c(S(=O)(=O)CC2CCC(S(C)(=O)=O)CC2)c(C)c1C (stereo not shown) [SA080]				55.01	62.45
Cc1ccc(S(=O)(=O)CC2CCC(S(C)(=O)=O)CC2)c(C(C)(C)C)c1 (stereo not shown) [SA085]				86	83.09
Cc1cc(C)c(C)c(S(=O)(=O)CC2CCC(S(C)(=O)=O)CC2)c1C (stereo not shown) [SA086]				33.07	40.75
CC(C)(C)c1ccccc1S(=O)(=O)CC1CCC(C2CC2)CC1 (stereo not shown) [SA087]				78.43	59.57
CC(C)(C)Cc1ccccc1S(=O)(=O)CC1CCC(C2CC2)CC1 (stereo not shown) [SA089]				56.61	50.1
CC1CC(C)CC(S(=O)(=O)C2CCC(CS(=O)(=O)c3ccccc3)CC2)C1 (stereo not shown) [SA090]				84.73	64.02
O=S(=O)(CC1CCC(C2CC2)CC1)c1ccc2c(c1)CCC2 (stereo not shown) [SA091]				88.36	101.3
Cc1cc(C)c(C)c(S(=O)(=O)CC2CCC(S(C)(=O)=O)CC2)c1C (stereo not shown) [SA093]				38.43	39.06
CCc1ccc(CC)c(S(=O)(=O)CC2CCC(S(C)(=O)=O)CC2)c1 (stereo not shown) [SA095]				44.97	67.3
